From PubChem BioAssay AID1963986 (Molecular Pharmacology Branch, DTP, NCI, 2024)
Each block holds one molecule with its values, some of them ahead of it.

Tested on: 171881-019-R-J1-PDC tumor spheroid viability
Test: Anticancer human tumor 171881-019-R-J1-PDC patient-derived invasive breast carcinoma cell line growth inhibition [PI3K]
Conditions: spheroids with HUVEC and MSC; for viability, T/C: stronger effect = lower value
Procedure, shortened: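 Tumor cells grown as multi-cell spheroids with HUVEC endothelial cells and MSC fibroblast-like stroma were treated with targeted agents combined with inavolisib, alpelisib, duvelisib or copanlisib. Doses fell in half-log steps from near clinical Cmax, else from 10 microM. Viability was measured.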
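Also: spheroids exposed to compound for 7 days before viability read.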
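For viability, T/C in this document: 100% = DMSO vehicle-treated spheroids.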

- IC50 (curve of first compound, second compound 0.0316 µM): > 1000 nM
- IC50 (curve of first compound, second compound 0.1 µM): > 1000 nM
- IC50 (curve of first compound, second compound 0.316 µM): > 1000 nM
- IC50 (curve of first compound, second compound 1 µM): > 1000 nM
- IC50 (curve of first compound, second compound 3.16 µM): > 1000 nM
- IC50 (curve of first compound, second compound 10 µM): > 1000 nM
Compound: CCN1CCN(Cc2ccc(Nc3ncc(F)c(-c4cc(F)c5nc(C)n(C(C)C)c5c4)n3)nc2)CC1 + CC(Nc1ncnc2nc[nH]c12)c1cc2cccc(Cl)c2c(=O)n1-c1ccccc1
- viability, T/C (second compound 0.0316 µM, first compound 0.00316 µM): 96.4%
- viability, T/C (second compound 0.0316 µM, first compound 0.01 µM): 98.5%
- viability, T/C (second compound 0.0316 µM, first compound 0.0316 µM): 103%
- viability, T/C (second compound 0.0316 µM, first compound 0.1 µM): 98%
- viability, T/C (second compound 0.0316 µM, first compound 0.316 µM): 122%
- viability, T/C (second compound 0.0316 µM, first compound 1 µM): 117%
- viability, T/C (second compound 0.1 µM, first compound 0.00316 µM): 99%
- viability, T/C (second compound 0.1 µM, first compound 0.01 µM): 95.5%
- viability, T/C (second compound 0.1 µM, first compound 0.0316 µM): 99.8%
- viability, T/C (second compound 0.1 µM, first compound 0.1 µM): 110%
- viability, T/C (second compound 0.1 µM, first compound 0.316 µM): 113%
- viability, T/C (second compound 0.1 µM, first compound 1 µM): 118%
- viability, T/C (second compound 0.316 µM, first compound 0.00316 µM): 95.4%
- viability, T/C (second compound 0.316 µM, first compound 0.01 µM): 103%
- viability, T/C (second compound 0.316 µM, first compound 0.0316 µM): 103%
- viability, T/C (second compound 0.316 µM, first compound 0.1 µM): 105%
- viability, T/C (second compound 0.316 µM, first compound 0.316 µM): 111%
- viability, T/C (second compound 0.316 µM, first compound 1 µM): 116%
- viability, T/C (second compound 1 µM, first compound 0.00316 µM): 92.7%
- viability, T/C (second compound 1 µM, first compound 0.01 µM): 98.4%
- viability, T/C (second compound 1 µM, first compound 0.0316 µM): 97.5%
- viability, T/C (second compound 1 µM, first compound 0.1 µM): 108%
- viability, T/C (second compound 1 µM, first compound 0.316 µM): 114%
- viability, T/C (second compound 1 µM, first compound 1 µM): 114%
- viability, T/C (second compound 3.16 µM, first compound 0.00316 µM): 95.5%
- viability, T/C (second compound 3.16 µM, first compound 0.01 µM): 94.8%
- viability, T/C (second compound 3.16 µM, first compound 0.0316 µM): 72.9%
- viability, T/C (second compound 3.16 µM, first compound 0.1 µM): 98.6%
- viability, T/C (second compound 3.16 µM, first compound 0.316 µM): 104%
- viability, T/C (second compound 3.16 µM, first compound 1 µM): 101%
- viability, T/C (second compound 10 µM, first compound 0.00316 µM): 67.5%
- viability, T/C (second compound 10 µM, first compound 0.01 µM): 61%
- viability, T/C (second compound 10 µM, first compound 0.0316 µM): 69.5%
- viability, T/C (second compound 10 µM, first compound 0.1 µM): 72.5%
- viability, T/C (second compound 10 µM, first compound 0.316 µM): 80.8%
- viability, T/C (second compound 10 µM, first compound 1 µM): 84.3%

- IC50 (curve of compound): > 100 nM
Compound: CC(=O)c1c(C)c2cnc(Nc3ccc(N4CCNCC4)cn3)nc2n(C2CCCC2)c1=O
- viability, T/C (compound 0.000316 µM): 91.8% [middle of 4 runs]
- viability, T/C (compound 0.001 µM): 85.3% [middle of 4 runs]
- viability, T/C (compound 0.00316 µM): 97% [middle of 4 runs]
- viability, T/C (compound 0.01 µM): 99.2% [middle of 4 runs]
- viability, T/C (compound 0.0316 µM): 108% [middle of 4 runs]
- viability, T/C (compound 0.1 µM): 88.7% [middle of 4 runs]
